According to PMC4949556, “Subtle Structural Differences Trigger Inhibitory Activity of Propafenone Analogues at the Two Polyspecific ABC Transporters: P‐Glycoprotein (P‐gp) and Breast Cancer Resistance Protein (BCRP)” (Chemmedchem, 2016):
“Also recorded” adds a separate entry of the source.

Columns and labels:
Type in all cases: cell-based
[1] = molecular target: T1, BCRP (Homo sapiens, UniProt Q9UNQ0); test: BCRP inhibition: steady-state mitoxantrone accumulation in BCRP-expressing PLB985 cells (flow cytometry); conditions: for IC50: BCRP IC50, mitoxantrone 7 μM, PLB985 BCRP cells, mean±SD, at least n=3 (11 a n=2); for Hill coefficient BCRP: Hill coefficient of IC50 measurement, mean ± SD of n experiments; for in vitro classification as BCRP inhibitor: IC50 below 10 μM considered active; for inhibition at 20 min, 100 µM: human, PLB985 cells stably expressing BCRP, pH 7.4, probe mitoxantrone (7 µM), 100µM compound, compared to positive control Ko143 (1µM) set as 100%, mean of 3 independent experiments, read-out: In vitro activity (% inhibition), BCRP, Table S1
T1 construct: expressed in transfected cells; host or cells: PLB985 human myeloid leukemia cells stably expressing BCRP (gift of B. Sarkadi and K. Nemet, Budapest)
T1 sequence (Q9UNQ0 whole entry): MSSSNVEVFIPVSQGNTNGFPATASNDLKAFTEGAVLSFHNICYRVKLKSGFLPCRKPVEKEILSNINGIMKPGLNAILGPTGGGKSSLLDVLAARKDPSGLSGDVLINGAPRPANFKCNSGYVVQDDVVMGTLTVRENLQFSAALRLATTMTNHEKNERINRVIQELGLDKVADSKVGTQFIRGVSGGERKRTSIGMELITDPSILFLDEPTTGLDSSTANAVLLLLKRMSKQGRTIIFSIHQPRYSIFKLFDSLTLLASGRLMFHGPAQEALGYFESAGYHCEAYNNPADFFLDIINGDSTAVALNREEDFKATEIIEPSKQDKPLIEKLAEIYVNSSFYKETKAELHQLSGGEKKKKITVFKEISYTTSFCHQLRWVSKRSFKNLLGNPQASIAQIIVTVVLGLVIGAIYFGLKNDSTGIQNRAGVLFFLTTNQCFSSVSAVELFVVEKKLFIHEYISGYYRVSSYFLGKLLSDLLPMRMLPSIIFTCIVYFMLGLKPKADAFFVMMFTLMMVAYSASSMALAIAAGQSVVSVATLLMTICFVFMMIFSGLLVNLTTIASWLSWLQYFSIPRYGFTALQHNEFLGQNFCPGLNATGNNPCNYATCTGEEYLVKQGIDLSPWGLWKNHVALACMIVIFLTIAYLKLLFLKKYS
Experimental: (§1) P‐gp and BCRP inhibitory activity was assessed by implementing an intracellular accumulation assay of daunorubicin or mitoxantrone in cells overexpressing P‐gp or BCRP, respectively. In a first run, the effect of compounds 5, 6, 10, 11, and 16 (Figure 2) at 100 μM final concentration was tested (Figure 3). All compounds showing an inhibitory effect of more than 50 % compared with full inhibition by the known inhibitors of P‐gp (verapamil) and BCRP (Ko143) were further processed, and IC50 values were determined (IC50 curves and Hill coefficients are available in Figure S1 and Table S3 in the Supporting Information). […] For P‐gp, nine compounds were classified as inhibitors (5 a, 5 b, 6 a, 10 a, 10 b, 11 b, 16 a, 16 b, 16 c).
(§2) Cell culture: The human myeloid leukemia PLB985 parental and stably expressing BCRP cell lines31 were kindly provided by B. Sarkadi (Institute of Enzymology, Research Centre for Natural Sciences, Budapest, Hungary) and K. Nemet (Creative Cell Ltd., Budapest, Hungary). Both cell lines were cultured in RPMI 1640 supplemented with 10 % FBS and 100 IU mL^−1 of penicillin and streptomycin. The human T‐lymphoblast cell line CCRF VCR1000, overexpressing P‐gp, was obtained by stepwise selection of CCRF‐CEM in vincristine‐containing medium32 and was kindly provided by V. Gekeler (Altana‐Pharma formerly Byk‐Gulden, Konstanz, Germany). CCRF VCR1000 cells were cultured in RPMI 1640 medium containing 20 % FBS and were treated regularly with vincristine (1 μg mL^−1) for about 72 h, followed by centrifugation (300 g, 5 min, RT) and resuspension in normal culture medium. All cell lines were maintained at 37 °C in an atmosphere containing 5 % CO2 with 95 % relative humidity.
(§3) Steady‐state accumulation experiments: For BCRP and P‐gp inhibition studies, the steady‐state accumulation of mitoxantrone (7 μM) and daunorubicin (3 μM), respectively, was performed as previously described.33 Briefly, cells were harvested, pelleted (300 g, 5 min, 4 °C), diluted to a concentration of 12×10^6 cells mL^−1 in HPMI (10 mM Hepes, 120 mM NaCl, 5 mM KCl, 0.4 mM MgCl2, 0.04 mM CaCl2, 10 mM glucose, 10 mM NaHCO3, 5 mM Na2HPO4, pH 7.4 with NaOH) and kept on ice for further processing. For each data point, the cell suspension (25 μL) was preincubated for 5 min at 37 °C with 2 % DMSO (25 μL) in HPMI alone (DMSO control) or containing different concentrations of test compound solutions. Thereafter, cells were preloaded with daunorubicin (50 μL) or mitoxantrone (50 μL) for 30 or 20 min at 37 °C, respectively, to reach a final concentration of 3 or 7 μM, respectively. […] Preloading was stopped by chilling cells on ice for 5 min followed by the addition of 400 μL ice‐cold PBS. Cells were pelleted (300 g, 5 min, 4 °C), the supernatant was discarded, and the cell pellet was resuspended in ice‐cold PBS (150 μL). Until measurement, cells were kept on ice and in the dark. Immediately before cell fluorescence measurement by flow cytometry (BD Accuri C6 and BD FACSCalibur, Becton Dickinson, San Jose, CA, USA; MACSQuant, MiltenyiBiotec GmbH, BergischGladbach, Germany), 50 μL of 4′,6‐diamidin‐2‐phenylindole solution (DAPI, 4 μg mL^−1 in PBS) was added to gate out dead cells. 100 μM verapamil and 1 μM Ko143 were used as positive controls for P‐gp and BCRP inhibition, respectively. […]

[2] = molecular target: T2, P-gp / BCRP (Homo sapiens, UniProt Q9UNQ0); test: as above; conditions: human, pH 7.4, probe daunorubicin (3 µM) for P-gp; mitoxantrone (7 µM) for BCRP; IC50 P-gp / IC50 BCRP; read-out: selectivity index (SI) P-gp/BCRP
T2 construct: expressed in transfected cells; host or cells: PLB985 human myeloid leukemia cells stably expressing BCRP (gift of B. Sarkadi and K. Nemet, Budapest)
T2 sequence (Q9UNQ0 whole entry): as above
Experimental: as §1, §2, §3

[3] = molecular target: T3, P-gp (Homo sapiens, UniProt P08183); test: P-gp inhibition: steady-state daunorubicin accumulation in P-gp-overexpressing CCRF VCR1000 cells (flow cytometry); conditions: for Hill coefficient P-gp: Hill coefficient of IC50 measurement, mean ± SD of n experiments; for in vitro classification as P-gp inhibitor: IC50 below 10 μM considered active; for IC50: daunorubicin 3 μM, CCRF VCR1000 cells, mean±SD, at least n=3; for fold higher IC50 value for BCRP than for P-gp: ratio IC50 BCRP / IC50 P-gp; for inhibition at 30 min, 100 µM: human, CCRF VCR1000 cells overexpressing P-gp, pH 7.4, probe daunorubicin (3 µM), 100µM compound, compared to positive control verapamil (100µM) set as 100%, mean of 3 independent experiments, read-out: In vitro activity (% inhibition), P-gp, Table S2
T3 construct: was obtained by stepwise selection of CCRF‐CEM in vincristine‐containing medium; endogenous in cells; host or cells: CCRF VCR1000 (vincristine-selected subline of CCRF-CEM human T-lymphoblasts; gift of V. Gekeler)
T3 sequence (P08183 whole entry): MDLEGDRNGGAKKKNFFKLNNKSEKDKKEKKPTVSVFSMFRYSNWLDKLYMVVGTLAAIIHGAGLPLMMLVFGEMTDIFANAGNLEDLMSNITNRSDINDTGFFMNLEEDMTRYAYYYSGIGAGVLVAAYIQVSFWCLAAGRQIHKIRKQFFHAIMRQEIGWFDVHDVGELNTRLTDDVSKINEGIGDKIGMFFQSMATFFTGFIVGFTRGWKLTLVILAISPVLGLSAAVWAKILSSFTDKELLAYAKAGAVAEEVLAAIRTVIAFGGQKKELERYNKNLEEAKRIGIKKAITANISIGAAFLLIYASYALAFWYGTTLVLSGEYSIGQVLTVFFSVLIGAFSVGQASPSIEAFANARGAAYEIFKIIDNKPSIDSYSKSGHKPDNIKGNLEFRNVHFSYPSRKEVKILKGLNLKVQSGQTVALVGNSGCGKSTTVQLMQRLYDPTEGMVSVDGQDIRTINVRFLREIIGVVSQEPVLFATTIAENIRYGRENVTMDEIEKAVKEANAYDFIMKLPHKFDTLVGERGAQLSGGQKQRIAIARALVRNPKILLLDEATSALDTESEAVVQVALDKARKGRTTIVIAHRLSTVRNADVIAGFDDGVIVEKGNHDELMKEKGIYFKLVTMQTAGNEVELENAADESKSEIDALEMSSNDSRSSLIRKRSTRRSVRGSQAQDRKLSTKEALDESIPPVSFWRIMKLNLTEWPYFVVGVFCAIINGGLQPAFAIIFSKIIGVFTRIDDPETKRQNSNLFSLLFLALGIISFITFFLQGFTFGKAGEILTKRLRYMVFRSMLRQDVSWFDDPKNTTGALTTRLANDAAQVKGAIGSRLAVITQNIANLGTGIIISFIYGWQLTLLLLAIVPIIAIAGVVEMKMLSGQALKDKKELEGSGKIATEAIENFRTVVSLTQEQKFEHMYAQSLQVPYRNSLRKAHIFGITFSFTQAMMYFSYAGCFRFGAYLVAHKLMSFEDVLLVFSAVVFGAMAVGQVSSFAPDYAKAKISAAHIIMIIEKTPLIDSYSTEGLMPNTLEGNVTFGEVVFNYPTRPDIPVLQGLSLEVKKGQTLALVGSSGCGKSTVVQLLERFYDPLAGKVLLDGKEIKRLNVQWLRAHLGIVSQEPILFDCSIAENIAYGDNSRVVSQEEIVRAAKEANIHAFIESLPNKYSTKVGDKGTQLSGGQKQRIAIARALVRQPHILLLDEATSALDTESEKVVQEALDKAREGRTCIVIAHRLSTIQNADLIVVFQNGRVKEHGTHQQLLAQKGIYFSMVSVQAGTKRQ
Experimental: as §1, §2, §3

| Structure (SMILES) | IC50 [1] [µM] | Hill coefficient BCRP [1] | in vitro classification as BCRP inhibitor [1] | selectivity ratio [2] | Hill coefficient P-gp [3] | in vitro classification as P-gp inhibitor [3] | IC50 [3] [nM] | fold higher IC50 value for BCRP than for P-gp [3] | inhibition at 20 min, 100 µM [1] [%] | inhibition at 30 min, 100 µM [3] [%] |
| --- | --- | --- | --- | --- | --- | --- | --- | --- | --- | --- |
| O=C(CCc1ccccc1)c1ccccc1OCC(O)CNC(=O)C1CCCN1 (stereo not shown) [Compound 5 a, N ‐(2‐hydroxy‐3‐(2‐(3‐phenylpropanoyl)phenoxy)propyl)pyrrolidine‐2‐carboxamide] | 16.1 | 1.4±0.3 | borderline activity | 0.13 | 1.3±0.2 | inhibitors | 2100 ± 400 | more than fivefold |  |  |
| COc1ccc(C(=O)CCc2ccccc2)c(OCC(O)CNC(=O)C2CCCN2)c1 (stereo not shown) [Compound 5 b, N‐(2‐hydroxy‐3‐(5‐methoxy‐2‐(3‐phenylpropanoyl)phenoxy)propyl)‐pyrrolidine‐2‐carboxamide] | 3.1 ± 0.5 | 1.4±0.1 | inhibitors |  | 1.3±0.2 | inhibitors | 2200 ± 600 | 1.4 fold |  |  |
| CC(=O)c1ccccc1OCC(O)CNC(=O)C1CCCN1 (stereo not shown) [Compound 5 c, N ‐(3‐(2‐acetylphenoxy)‐2‐hydroxypropyl)pyrrolidine‐2‐carboxamide] |  |  | noninhibitors |  | 1.9±0.2 | noninhibitors | 58700 ± 9200 |  | 20 |  |
| CC(=O)c1ccccc1OCC(O)CN1CC(=O)N2CCCC2C1=O (stereo not shown) [Compound 6 c, 2‐(3‐(2‐Acetylphenoxy)‐2‐hydroxypropyl)hexahydropyrrolo[1,2‐a]‐pyrazine‐1,4‐dione] |  |  | noninhibitors |  |  | noninhibitors |  |  | 33 | 4 |
| O=C(CCc1ccccc1)c1ccccc1OCCNC(=O)C1CCCN1 (stereo not shown) [Compound 10 a, N ‐(2‐(2‐(3‐phenylpropanoyl)phenoxy)ethyl)pyrrolidine‐2‐carboxamide] | 3.3 ± 0.6 | 1.3±0.2 | inhibitors |  | 1.6±0.2 | inhibitors | 1300 ± 100 | more than 2.6 fold |  |  |
| COc1ccc(C(=O)CCc2ccccc2)c(OCCNC(=O)C2CCCN2)c1 (stereo not shown) [Compound 10 b] | 2.9 ± 0.5 | 1.0±0.1 | inhibitors |  | 1.1±0.1 | inhibitors | 1000 ± 200 | more than 2.6 fold |  |  |
| CC(=O)c1ccccc1OCCNC(=O)C1CCCN1 (stereo not shown) [Compound 10 c, N ‐(2‐(2‐acetylphenoxy)ethyl)pyrrolidine‐2‐carboxamide] |  |  | noninhibitors |  | 2.2±0.4 | noninhibitors | 34800 ± 1800 |  | 24 |  |
| O=C(CCc1ccccc1)c1ccccc1OCCN1CC(=O)N2CCCC2C1=O (stereo not shown) [Compound 11 a, 2‐(2‐(2‐(3‐Phenylpropanoyl)phenoxy)ethyl)hexahydropyrrolo[1,2‐a]‐pyrazine‐1,4‐dione] | 21.5 ± 2.9 | 1.0±0.0 | weak inhibitor |  | 1.8±0.4 | borderline inhibitory activity; also recorded: borderline inhibitor | 13900 ± 1500 | 1.5 fold |  |  |
| CC(=O)c1ccccc1OCCN1CC(=O)N2CCCC2C1=O (stereo not shown) [Compound 11 c, 2‐(2‐(2‐Acetylphenoxy)ethyl)hexahydropyrrolo[1,2‐a]pyrazine‐1,4‐dione] |  |  | noninhibitors |  |  | noninhibitors |  |  | 37 | 8 |
| CC(C)NCC(O)COc1ccccc1C(=O)CCc1ccccc1 (stereo not shown) [Compound 16 a, 1‐(2‐(2‐Hydroxy‐3‐(isopropylamino)propoxy)phenyl)‐3‐phenyl‐propan‐1‐one] |  |  |  |  | 0.9±0.1 | inhibitors | 300 | more than fivefold | 53 |  |
| CC(CF)NCC(O)COc1ccccc1C(=O)CCc1ccccc1 (stereo not shown) [Compound 16 b, 1‐(2‐(3‐((1‐Fluoropropan‐2‐yl)amino)‐2‐hydroxypropoxy)phenyl)‐3‐phenylpropan‐1‐one] | 5.5 ± 0.9 | 1.6±0.2 | inhibitors |  | 1.3±0.2 | inhibitors | 500 ± 100 | more than fivefold |  |  |
| CC(NCC(O)COc1ccccc1C(=O)CCc1ccccc1)C(F)F (stereo not shown) [Compound 16 c, 1‐(2‐(3‐((1,1‐Difluoropropan‐2‐yl)amino)‐2‐hydroxypropoxy)phenyl)‐3‐phenylpropan‐1‐one] | 4.9 ± 1.1 | 1.0±0.2 | inhibitors |  | 1.5±0.1 | inhibitors | 900 ± 200 | more than fivefold |  |  |
